Test results taken from patent US10053437B2, “Salt of dicarboxylic acid compound” (Daiichi Sankyo Company, Limited, priority 2014, dated 2018).
Values after ≈ are worked out from the molar mass of the structure shown. Counter-ions that a name gives are not always drawn. Like-named read-outs stand apart in the source and are kept apart here.

Assays:
[1] = Measurement of solubility (shaking at 37° C., UHPLC); format: physicochemical; settings: for solubility at 24 h / solubility at 30 min: thermodynamic from solid; for Solubility Mc pH 6.0: diluted McIlvaine buffer pH 6.0, shaking at 37° C. for 30 minutes; for Solubility diluted McIlvaine buffer pH 6.0: diluted McIlvaine buffer pH 6.0, shaking at 37° C. for 24 hours
Description: With regard to the measurement of solubility, solubility was calculated by the following operations.
Approximately 5 mg of a sample was weighed into a test tube, and then 5 mL each solution (see below) that had previously been set at 37° C. was added to the test tube.
Using Thermomixer Comfort (a shaker) manufactured by Eppendorf, the test tube was intensively shaken at 37° C. for 30 seconds at 750 rpm, and was then left at rest for 4 minutes 30 seconds. This shaking and resting operation was repeated 5 times (30 minutes in total).
The solutions obtained 30 minutes and 24 hours after initiation of the shaking were promptly filtered through a membrane filter (pore diameter: 0.45 μm), and the obtained filtrates were each diluted with a sample solution to an appropriate concentration. The concentration of a compound in the filtrate was measured by UHPLC, and solubility was then calculated.
The following solutions were used. • JP1: 2.0 g of sodium chloride was dissolved in 7.0 mL of hydrochloric acid and water to prepare 1000 mL of a solution (pH: about 1.2). • JP2: 118 mL of a 0.2 mol/L sodium hydroxide test solution and water were added to 250 mL of a 0.2 mol/L potassium dihydrogen phosphate test solution to prepare 1000 mL of a solution (pH: about 6.8). • Water: Ultrapure water (for use in LC/MS) manufactured by Wako Pure Chemical Industries, Ltd. was used. • Mc pH 6.0: A diluted McIlvaine buffer (pH 6.0) manufactured by Kanto Chemical Co., Inc. was used. • Mc pH 7.5: A diluted McIlvaine buffer (pH 7.5) manufactured by Kanto Chemical Co., Inc. was used.
Conditions for HPLC are as follows.
Apparatus: UHPLC H-Class manufactured by Waters
Mobile phase: A: 0.01 mol/L aqueous potassium phosphate solution (pH 4.0); B: acetonitrile
Column: Acquity UPLC BEH C18, 2.1 mm ID×75 mm, particle diameter: 1.7 μm (Waters)
Column temperature: 40° C.
Detection wavelength: 220 nm

[2] = system: intestinal phosphate absorption; experiment: Rat 33P phosphate oral challenge test (intestinal phosphate absorption suppression test); format: in vivo; settings: male SD rats, 30 mg/kg forced oral administration, serum radioactivity AUC0-60 min vs control group
Description: (Test Example) Rat ^33P Phosphate Oral Challenge Test (Intestinal Phosphate Absorption Suppression Test)
Using male SD rats (5-7 weeks old) that had been fasted on the previous day, the compound described in the Examples was suspended or dissolved in a solvent such as 0.5% methyl cellulose (3-6 mg/mL), and the thus obtained solution was administered to each rat at a dose of 30 mg/kg by forced oral administration. On the other hand, regarding a control group, the solvent was administered to each rat at a dose of 5 mL/kg. Thirty minutes after administration, a […] phosphate solution (8.3 mM NaH2PO4, 0.35 MBq/mL) was administered to the rats at a dose of 7.2 mL/kg by forced oral administration. Then, 15, 30, 60, and 120 minutes after administration, blood was collected from the jugular vein of each rat under anesthesia with isoflurane. The radioactivity in […] was measured using a liquid scintillation counter, and the AUC0-60 min was then calculated from the radioactivity value. The obtained value was defined as an amount of phosphate absorbed. The phosphate absorption-inhibiting activity of the compound was calculated according to the following expression. Phosphate absorption-inhibiting activity (%)=[…]

[3] = JP2 (pH about 6.8), shaking at 37° C. for 30 minutes
[4] = JP2 (pH about 6.8), shaking at 37° C. for 24 hours
[5] = shaking at 37° C. for 30 minutes

## CCN([C@H]1CC[C@H](C(=O)O)CC1)S(=O)(=O)c1cccc(C(=O)Nc2ccc(N3CCCCC3)cc2C(=O)Nc2ccc(CCc3ccc(C(=O)O)cc3)cc2)c1 [Example 8, monopiperazine salt of 4-[2-(4-{[2-({3-[(trans-4-carboxycyclohexyl)(ethyl)sulfamoyl]benzoyl}amino)-5-(piperidin-1-yl)benzoyl]amino}phenyl)ethyl]benzoic acid]
[1]; JP1 solution (sodium chloride/hydrochloric acid in water), 37 °C, pH 1.2, simulated gastric fluid, JP1 (pH about 1.2), shaking at 37° C. for 24 hours, read-out: Solubility JP1
  solubility at 24 h: 1.4 µg/mL
[1]; [3]
  Solubility JP2: 105.7 µg/mL
[1]; [4]
  Solubility JP2: 137.8 µg/mL
[1]
  Solubility Mc pH 6.0: 3.3 μg/mL
  Solubility diluted McIlvaine buffer pH 6.0: 0.2 μg/mL
[1]; [5]
  Solubility water: 31.7 µg/mL
[1]; shaking at 37° C. for 24 hours
  Solubility water: 429.5 µg/mL

## CCN([C@H]1CC[C@H](C(=O)O)CC1)S(=O)(=O)c1cccc(C(=O)Nc2ccc(N3CCCCC3)cc2C(=O)Nc2ccc(CCc3ccc(C(=O)O)cc3)cc2)c1 [Example 7, mono-p-toluenesulfonate of 4-[2-(4-{[2-({3-[(trans-4-carboxycyclohexyl)(ethyl)sulfamoyl]benzoyl}amino)-5-(piperidin-1-yl)benzoyl]amino}phenyl)ethyl]benzoic acid]
[1]; JP1 (pH about 1.2), shaking at 37° C. for 30 minutes
  Solubility JP1: 0.7 µg/mL (≈ 0.896 µM)
[1]; JP1 solution (sodium chloride/hydrochloric acid in water), 37 °C, pH 1.2, simulated gastric fluid, JP1 (pH about 1.2), shaking at 37° C. for 24 hours, unit printed as μL, read-out: Solubility JP1
  solubility at 24 h: 0.1 µg/mL (≈ 0.128 µM)
[1]; [3]
  Solubility JP2: 61.7 µg/mL (≈ 79 µM)
[1]; [4]
  Solubility JP2: 87.5 µg/mL (≈ 112 µM)
[1]
  Solubility diluted McIlvaine buffer pH 6.0: 1058.4 μg/mL
[1]; diluted McIlvaine buffer pH 7.5, 37 °C, pH 7.5, aqueous buffer, diluted McIlvaine buffer pH 7.5, shaking at 37° C. for 30 minutes, read-out: Solubility Mc pH 7.5
  solubility at 30 min: 639 µg/mL (≈ 819 µM)
[1]; [5]
  Solubility water: 0.2 µg/mL (≈ 0.256 µM)
[1]; shaking at 37° C. for 24 hours
  Solubility water: 0.2 µg/mL (≈ 0.256 µM)

## CCN([C@H]1CC[C@H](C(=O)O)CC1)S(=O)(=O)c1cccc(C(=O)Nc2ccc(N3CCCCC3)cc2C(=O)Nc2ccc(CCc3ccc(C(=O)O)cc3)cc2)c1 [Example 1, Disodium 4-[2-(4-{[2-({3-[(trans-4-carboxycyclohexyl) (ethyl)sulfamoyl]benzoyl}amino)-5-(piperidin-1-yl)benzoyl]amino}phenyl)ethyl]benzoate trihydrate]
[2]
  Phosphorus absorption-inhibiting activity (%): 72%
[1]; 37 °C, pH 6.8, aqueous buffer, JP2 (pH about 6.8), shaking at 37° C. for 24 hours, unit inferred, read-out: Solubility JP2
  solubility at 24 h: 10.7 µg/mL
[1]; JP1 solution (sodium chloride/hydrochloric acid in water), 37 °C, pH 1.2, simulated gastric fluid, JP1 (pH about 1.2), shaking at 37° C. for 30 minutes, read-out: Solubility JP1
  solubility at 30 min: 1 µg/mL
[1]; JP1 solution (sodium chloride/hydrochloric acid in water), 37 °C, pH 1.2, simulated gastric fluid, JP1 (pH about 1.2), shaking at 37° C. for 24 hours, unit inferred, read-out: Solubility JP1
  solubility at 24 h: 1.3 µg/mL
[1]; JP2 (pH about 6.8), shaking at 37° C. for 30 minutes, trihydrate
  Solubility JP2: 40.3 µg/mL
[1]; trihydrate
  Solubility Mc pH 6.0: 1.1 μg/mL
  Solubility diluted McIlvaine buffer pH 6.0: 0.1 μg/mL
[1]; shaking at 37° C. for 30 minutes, trihydrate
  Solubility water: 949.4 µg/mL
[1]; shaking at 37° C. for 24 hours, trihydrate
  Solubility water: 960.1 µg/mL

## CCN([C@H]1CC[C@H](C(=O)O)CC1)S(=O)(=O)c1cccc(C(=O)Nc2ccc(N3CCCCC3)cc2C(=O)Nc2ccc(CCc3ccc(C(=O)O)cc3)cc2)c1 [Example 6, potassium sodium 4-[2-(4-{[2-({3-[(trans-4-carboxycyclohexyl)(ethyl)sulfamoyl]benzoyl}amino)-5-(piperidin-1-yl)benzoyl]amino}phenyl)ethyl]benzoate hydrate]
[2]; hydrate, 30 mg/kg
  Phosphorus absorption-inhibiting activity (%): 59%
[1]; JP2 (pH about 6.8), shaking at 37° C. for 30 minutes, hydrate
  Solubility JP2: 22.5 µg/mL
[1]; JP2 (pH about 6.8), shaking at 37° C. for 24 hours, hydrate
  Solubility JP2: 968.5 µg/mL
[1]; shaking at 37° C. for 30 minutes, hydrate
  Solubility water: 2.2 µg/mL
[1]; shaking at 37° C. for 24 hours, hydrate
  Solubility water: 940.7 µg/mL
